The values that follow come from US20060068457A1, “Substrates for tafi (a)” (priority 2002, published 2006).

The target of one test is T1, TAFIa (Homo sapiens, UniProt Q96IY4).
T1 construct: purchased Enzyme Research Laboratory
T1 sequence (Q96IY4 115-423): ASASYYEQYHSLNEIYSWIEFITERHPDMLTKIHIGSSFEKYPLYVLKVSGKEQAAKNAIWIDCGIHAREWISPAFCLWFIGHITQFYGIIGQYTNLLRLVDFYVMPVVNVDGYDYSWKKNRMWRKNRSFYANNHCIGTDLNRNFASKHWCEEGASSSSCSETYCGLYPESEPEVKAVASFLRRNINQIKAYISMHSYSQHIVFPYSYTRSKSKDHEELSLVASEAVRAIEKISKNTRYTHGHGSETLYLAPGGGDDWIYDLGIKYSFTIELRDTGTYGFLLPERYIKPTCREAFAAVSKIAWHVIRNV
The experiment in a line: Splitting of thiaarginine and thialysine substrates by TAFIa (DTNB chromogenic enzyme assay). The conditions noted are these: substrate final concentration 174 μM, TAFIa final concentration 17 μg/ml, RT, 10 min. The format is biochemical. The source says: In a first step, the substrate is hydrolyzed by TAFIa in such a way that a thioamino acid (thiaarginine or thialysine) is released. These instable intermediates are rapidly decomposed into 2-mercaptoethylguanidine or […], respectively. These mercapto compounds react with Ellman's reagent (5,5′-dithio-bis-(2-nitrobenzoic acid)), thereby releasing the strongly yellow 3-carboxy-4-nitrothiophenol that can be measured using a spectrophotometer at 405-412 nm. The free thiol content measured is directly proportional to the quantity of substrate hydrolyzed by TAFIa and thereby allows a quantitative analysis of the enzyme activity.
Enzyme assay: The enzyme activity is measured at room temperature by using a 10 mM substrate stock solution in DMSO. TAFI of human origin can be obtained in a stock solution of 360 μg/ml from Enzyme Research Laboratory or over blood plasma. Activation of TAFI to TAFIa occurred with thrombin (2.7 U/ml), the activation of which was produced with 30 μg of thrombomodulin. Excessive thrombin activity was eliminated by adding the synthetic inhibitor NAPAP. The measurement was performed on microtiter plates.
The absorption increase at 405-412 nm was recorded for 10 minutes.
in buffer (20 mM HEPES, 5 mM CaCl2, 0.01% Tween 80; pH 7.4) • incubate for 5 min at 25° C.
(§1) • measure for 10 min at RT Results: • Splitting of thiaarginine and thialysine substrates (final concentration 174 μM) by TAFIa (final concentration 17 μg/ml) • in brackets the value for carboxypeptidase B • Substances of comparison A and B from Bull. Korean. Chem. Soc. 1998, 19(2), 189-193
(§2) ΔE=Extinction variation at 405 nm

The target in another test is T2, carboxypeptidase B (Homo sapiens, UniProt P15086).
T2 sequence (P15086 111-417): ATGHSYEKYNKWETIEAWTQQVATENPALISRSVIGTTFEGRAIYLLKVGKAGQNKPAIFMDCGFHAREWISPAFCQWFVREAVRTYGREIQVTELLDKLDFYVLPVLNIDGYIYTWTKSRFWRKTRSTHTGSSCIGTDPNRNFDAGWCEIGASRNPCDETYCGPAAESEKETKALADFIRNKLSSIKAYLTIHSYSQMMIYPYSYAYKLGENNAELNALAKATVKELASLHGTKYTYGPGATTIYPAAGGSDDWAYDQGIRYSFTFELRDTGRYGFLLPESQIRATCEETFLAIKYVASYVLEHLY
As to the kind of experiment: Splitting of thiaarginine and thialysine substrates by carboxypeptidase B. The format is biochemical. To be noted: substrate final concentration 174 μM. Here is the method:
The thiaarginine derivatives of the following formulas A and B [drawing 2] have been described as substrates for carboxypeptidase B (Bull. Korean. Chem. Soc. 1998, 19(2), 189-193). […] Detection of CPB by means of compound A is carried out according to the following FIG. 1. [drawing]
as §1, §2

For the molecule `Cl.NC(N)=NCCSC(NC(=O)[C@H](CCCCNC(=O)OCc1ccccc1)NC(=O)c1ccccc1)C(=O)O` (stereo partly drawn) [No. 4269, benzoyl-(L)-lysyl-(E-benzyloxycarbonyl)-α-(D, L)-(2-guanidinoethylthio)-glycine hydrochloride salt], at TAFIa, the “ΔE/min (extinction variation at 405 nm), splitting by TAFIa” value (shortened to “ΔE/min … by TAFIa”) is recorded as 0.108. The “ΔE/min (extinction variation at 405 nm), value in brackets for carboxypeptidase B” value (from here on “ΔE/min … for carboxypeptidase B”) at carboxypeptidase B is “(0.018)”.

Turning to `NCCCSC(NC(=O)[C@H](CCCCNC(=O)OCc1ccccc1)NC(=O)c1ccccc1)C(=O)O.O=C(O)C(F)(F)F` (stereo partly drawn) [No. 4339, benzoyl-(L)-lysyl-(F-benzyloxycarbonyl)-α-(D,L)-(3-aminopropylthio)-glycine trifluoracetic acid salt], the “ΔE/min … by TAFIa” value at TAFIa is given as 0.055.

For Boc-F-K(Boc)-G(GUS)-OH × HCl [No. 4298], the “ΔE/min … by TAFIa” value at TAFIa was found to be 0.043. Moreover, the “ΔE/min … for carboxypeptidase B” value on carboxypeptidase B is “(0.034)”.

As to Boc-K(Tos)-G(GUS)-OH × HCl [No. 4273], the “ΔE/min … by TAFIa” value at TAFIa is given as 0.014. For the same molecule, on carboxypeptidase B, the “ΔE/min … for carboxypeptidase B” value is recorded as “(0.048)”.

With Boc-K(Z)-G(GUS)-OH × TFA [No. 4275], the “ΔE/min … by TAFIa” value on TAFIa is given as 0.041. For the same molecule, the “ΔE/min … for carboxypeptidase B” value at carboxypeptidase B is “(0.028)”.

For the molecule Boc-K(Z)-G(α-SPrA)-OH × TFA [No. 4341], the “ΔE/min … by TAFIa” value on TAFIa came out at 0.054.

Take Bz-P-K(Boc)-G(GUS)-OH × TFA [No. 4300]: the “ΔE/min … by TAFIa” value on TAFIa is 0.012. The “ΔE/min … for carboxypeptidase B” value at carboxypeptidase B is reported as “(0.072)”.

Regarding Bz-V-G(GUS)-OH × TFA [No. 4334], the “ΔE/min … by TAFIa” value at TAFIa was found to be 0.034.

Consider Bz-V-G(α-SPrA)-OH × TFA [No. 4336], for which the “ΔE/min … by TAFIa” value at TAFIa stood at 0.053.

In the case of Z-A-K(Boc)-G(GUS)-OH × HCl [No. 4302], the “ΔE/min … by TAFIa” value on TAFIa is given as 0.042. Moreover, the “ΔE/min … for carboxypeptidase B” value on carboxypeptidase B was “(0.059)”.
